From US10919927B2, “Immune stimulating macrolide” (ISR IMMUNE SYSTEM REGULATION HOLDING AB (PUBL), priority 2017, dated 2021)
“Also recorded” adds a separate entry of the source.

Assays:
[1] = test system: E. coli, S. salivarius, L. casei, B. longum or M. luteus; assay: Direct antibacterial activity, all bacterial strains tested (summary); format: cell-based
Method: The bioactivity of macrolide compounds against 4 strains of common gut bacteria (Escherichia coli, Streptococcus salivarius subsp. salivarius, Lactobacillus casei and Bifidobacterium longum subsp. infantis) and common mammalian skin isolate Micrococcus luteus, was assessed using the Minimum Inhibitory Concentration (MIC) assay. Bacterial strains were purchased from DSMZ (Brunswick, Germany) except M. luteus which was obtained from NCIMB, and stored in 20% glycerol at −80° C. Stock solutions (100% DMSO) of positive controls (azithromycin and erythromycin), and of test compounds 1 and 2 were diluted in broth to working stock concentrations of 256 μg/ml (final assay testing concentration range 128 μg/ml to 0.00391 μg/ml). Stock solutions of all other compounds were diluted in broth to working stock concentrations of 128 μg/ml (final assay testing concentration range 64 μg/ml to 0.00195 μg/ml). Bacterial strains were cultivated in appropriate broth in an anaerobic chamber at 37° C., except for M. luteus which was incubated aerobically at 37° C. 18 h cultures were diluted in broth to an OD595 of 0.1 and then further diluted 1:10. In 96-well plates, in duplicate, 200 μl working stock of test compound was transferred to well 1 and serially diluted (1:2) in broth. 100 μl bacterial suspension was aliquoted into each well and mixed thoroughly. Appropriate sterility controls were included and plates were incubated in an anaerobic chamber, or aerobically (M. luteus) at 37° C. for 18 h. The MIC was determined to be the concentration of test compound in the first well with no visible growth.

human TLR2 = molecular target: T1, human TLR2 (Homo sapiens, UniProt O60603); assay: TLR2 reporter assay (HEK-293-TLR cells, SEAP); format: cell-based; details: concentrations 5 uM up to 20 uM
T1 construct: host or cells: recombinant HEK-293-TLR cell lines
Method: These cell lines functionally over-express human TLR2 protein as well as a reporter gene which is a secreted alkaline phosphatase (SEAP). The production of this reporter gene is driven by an NFkB inducible promoter. The TLR reporter cell lines activation results are given as optical density values (OD).
20 μl of each test article were used to stimulate the hTLR2 reporter cell lines in a 200 μl of final reaction volume. Samples were tested in duplicate, with at least two concentrations tested—20 uM and 10 uM.
Compounds were tested using a TLR2 reporter assay (see general methods) that measured for stimulation of the TLR2 receptor. Stimulatory effect was measured as an increase in optical density, as compared to the negative control (OD) due to release of secreted alkaline phosphatase (SEAP) and is shown in table 2.

[2] = Caco-2 bidirectional permeability assay; format: in vitro ADME; details: human, Caco-2, 10 μM, 90 minutes
Method: (§1) 10 μM Test article was added to the apical (A) surface of Caco-2 cell monolayers (in HBSS buffer with 0.3% DMSO and 5 μM LY at 37 degrees C.) and compound permeation into the basolateral (B) compartment measured following 90 minutes incubation. This was also performed in the reverse direction (basolateral to apical) to investigate active transport. LC-MS/MS is used to quantify levels of both the test and standard control compounds. Efflux ratio was calculated by dividing the B to A permeability by the […]. Drug permeability: Papp=(VA/(Area×time))×([drug]accepter/(([drug]initial,donor)×Dilution Factor). Assessment of Metabolic Stability (Microsome Stability Assay)
(§2) Compounds were tested using a standard caco-2 bidirectional permeability assay (see general methods).

PBMCs = assay: Cytokine secretion from PBMC, cytometric bead assay; format: cell-based, Human; details: 2 days
Description: (§3) Study 10: PBMCs and macrophages where exposed to compounds 1 or 2 for 2 days (FIG. 11).
(§4) Study 11: PBMCs and macrophages where exposed to compounds 1 and 2 for 2 days.
(§5) Study 12: PBMCs, macrophages and CD4+ T cells where exposed to compounds 1 and 2 for 2 days.

[3] = test system: PBMCs from cytomegalovirus (CMV) infected donors; assay: Cytomegalovirus (CMV) antigen cultures; format: cell-based, Human
Method: Human peripheral blood mononuclear cells (PBMCs) were purified from healthy CMV positive donors with Ficoll-Paque density centrifugation. The PBMC were labeled with 5 μM celltrace violet (Invitrogen) in PBS for 15 minutes and then washed with complete cell culture medium. The labeled PBMC was cultured in the presence of a peptide library spanning the CMV pp65 protein (1 μg peptide/ml, JPT) in AIM-V media (Invitrogen) supplemented with L-glutamine, Sodium pyruvate (Sigma), 10% fetal bovine serum, 100 μg/mL penicillin and 100 μg/mL streptomycin (Hyclone) for 6-8 days in 37° C., 5% CO2. Cell proliferation was assessed with flow cytomtery using a BD FACS Canto II flow cytometer.
Study 7: Virus specific T cell proliferation was also affected by compound 1. […] CD127 is crucial for T cell homeostasis, differentiation and function, and reduced expression correlates with disease severity in HIV and other chronic viral diseases (Crawley et al Sem Imm 2012).
Study 8: PBMCs from CMV infected donors cultured in the presence of CMV antigen where either untreated or exposed to compound 1 or compound 2 for 3 days.

CD4+ T cells = assay: IL-1beta secretion from CD4+ T cells, cytometric bead assay; format: cell-based, Human; details: 2 days
Description: as §5

C57bl/6 mice [4] = assay: MHC class I expression on CD11b+ splenocytes of mice after i.v. injection; format: in vivo; details: spleen 24 h later
Method: FIG. 15: % MHC class I high CD11 b+ cells in spleen of 3 individual C57bl/6 mice injected 24 h previously with indicated compound. MHC class I and CD11 b expression was measured by flow cytometry.
Study 14: Compound 1 or 2 was administered i.v. to C57bl/6 mice.

C57bl/6 mice [5] = assay: CD25 high cells in blood of mice after i.v. injection; format: in vivo; details: highest dose of 5 mg/kg, 24 h
Method: FIG. 14: % CD25 high cells in blood of C57bl/6 mice injected 24 h previously with indicated dose of compound 1. CD25 expression was measured by flow cytometry.
Study 13: Compound 1 was administered i.v. to C57bl/6 mice at 0.165 mg/kg to 5 mg/kg. CD25+ cell abundance was increased in animals receiving the highest dose of 5 mg/kg (FIG. 14), as was body weight in the same group (not shown).

[6] = test system: Macrophages from healthy donors; assay: Cytokine secretion from macrophages, cytometric bead assay; format: cell-based, Human
Method: Study 9: Macrophages from healthy donors where exposed to compounds 1 or 2 for 48 hours. […] Compound 1 is therefore able to induce IFN-gamma secretion in macrophages from healthy donors.
as §3, §4, §5

Caco-2 cell monolayers = assay: Caco-2 bidirectional permeability assay; format: in vitro ADME
Method: as §1, §2

T1 sequence (O60603 21-784): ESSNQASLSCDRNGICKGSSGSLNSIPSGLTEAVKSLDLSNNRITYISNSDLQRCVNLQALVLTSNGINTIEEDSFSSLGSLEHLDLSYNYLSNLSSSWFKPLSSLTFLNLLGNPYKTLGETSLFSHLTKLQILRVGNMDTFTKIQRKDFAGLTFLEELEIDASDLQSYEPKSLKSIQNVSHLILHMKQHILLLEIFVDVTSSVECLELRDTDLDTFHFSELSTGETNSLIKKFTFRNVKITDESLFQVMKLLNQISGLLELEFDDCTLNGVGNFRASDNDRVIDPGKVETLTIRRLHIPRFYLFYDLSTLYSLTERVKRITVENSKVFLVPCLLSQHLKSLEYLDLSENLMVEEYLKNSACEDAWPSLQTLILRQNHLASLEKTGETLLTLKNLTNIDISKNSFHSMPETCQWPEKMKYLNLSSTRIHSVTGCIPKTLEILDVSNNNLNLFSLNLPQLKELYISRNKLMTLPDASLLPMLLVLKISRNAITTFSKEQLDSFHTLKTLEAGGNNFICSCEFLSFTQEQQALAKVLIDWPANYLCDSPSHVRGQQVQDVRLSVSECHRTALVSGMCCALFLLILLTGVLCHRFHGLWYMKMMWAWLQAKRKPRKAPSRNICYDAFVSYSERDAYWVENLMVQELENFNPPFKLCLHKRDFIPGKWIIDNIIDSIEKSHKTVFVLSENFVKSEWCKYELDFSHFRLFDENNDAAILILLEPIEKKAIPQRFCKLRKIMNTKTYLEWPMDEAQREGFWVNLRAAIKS

Row | SMILES | antibacterial activity (in words) [1] | TLR2 stimulation (in words) (human TLR2) | efflux ratio at 90 min, 10 μM [2] | Papp A→B at 90 min, 10 μM ([2]; apical to basolateral) [×10⁻⁶ cm/s] | IL-1beta secretion in PBMCs (PBMCs) | IL-12p70 secretion from PBMCs (PBMCs) | expression of RANTES in PBMCs (PBMCs) | IFN-gamma secretion ([3]; 3 days) | IL-7 receptor α (CD127) on activated CMV specific CD8+ T cells ([3]; 6 days) | IL-1beta secretion in CD4+ T cells (CD4+ T cells) | splenocyte cells (CD11b+) with high MHC I expression (C57bl/6 mice [4]) | CD25+ cell abundance in blood (C57bl/6 mice [5]) | IL-1beta secretion in macrophages ([6]; 2 days) | IL-12p70 secretion from macrophages ([6]; 2 days) | expression of RANTES in macrophages ([6]; 2 days) | IFN-gamma secretion from macrophages ([6]; 48 hours) | cell permeability compared with Azithromycin and EM703 (in words) (Caco-2 cell monolayers) | efflux ratio compared with Azithromycin and EM703 (in words) (Caco-2 cell monolayers)
1 | CC[C@H]1OC(=O)[C@H](C)[C@@H](O[C@H]2C[C@@](C)(OC)[C@@H](O)[C@H](C)O2)[C@H](C)[C@@H](O[C@@H]2O[C@H](C)C[C@H](N(C)C)[C@H]2O)[C@](C)(O)C[C@@H](C)CN(C)[C@H](C)[C@@H](O)[C@]1(C)O [Azithromycin, reference compound] | potent activity | little or no stimulation | > 77.6 | < 0.14 | – | – | – | – | – | – | – | – | – | – | – | – | – | –
2 | CC[C@H]1OC(=O)[C@H](C)[C@@H](O[C@H]2C[C@@H](N(C)C)[C@H](O)[C@@H](C)O2)[C@H](C)[C@@H](O)[C@](C)(O)C[C@@H](C)CN(C)[C@H](C)[C@@H](O)[C@]1(C)O [Compound 1] | no antibacterial activity; also recorded: no or minimal antibacterial effect | stimulated TLR2 at concentrations down to 5 uM | 63.4 | – | slightly | secreted IL-12p70 | twofold upregulation | induced secretion of high levels | increased expression | no IL-1beta was induced | increase | increased | increased | secreted IL-12p70 | high expression | secreted IFN-gamma | more cell permeable | lower efflux ratio
3 | CC[C@H]1OC(=O)[C@H](C)[C@@H](O[C@H]2C[C@@](C)(OC)[C@@H](O)[C@H](C)O2)[C@H](C)[C@@H](O[C@@H]2O[C@H](C)C[C@H](N(C)C)[C@H]2O)[C@](C)(O)C[C@@H](C)C(=O)[C@H](C)[C@@H](O)[C@]1(C)O [Erythromycin, Erythromycin A, reference compound] | potent activity | little or no stimulation | – | – | – | – | – | – | – | – | – | – | – | – | – | – | – | –
